Key:
[1] = tested on: K562; experiment: Anti-proliferative activity test in cancer cells exhibiting multidrug resistance (MTT), parent line; assay type: cell-based; settings: Homo sapiens, 96 h, 4 days
Protocol: (§1) HeLa cells (American Type Culture Collection: ATCC, USA), a human cervical cancer cell line, were seeded in a 96-well plate at 3×10^3 cells/well, and the cells were then treated with compounds of Examples or Comparative Example according to the present invention and grown for 2 days. Then, MTT (3-(4,5-dimethylthiazol-2-yl)-2,5-diphenyltetrazolium bromide) reagent was added at 10 μL/well. […] The data shown in Table below are mean values of results obtained by repeating the analysis twice. Specifically, K562 and MCF7 (Bio Evaluation Center, Korea Research Institute of Bioscience and Biotechnology, Korea) and multidrug-resistant cell lines of each of these cell lines, i.e., K562/ADR and MCF7/ADR (Bio Evaluation Center, Korea Research Institute of Bioscience and Biotechnology, Korea), were cultured on microtiter plates (1-3×10^3 cells/well). […] The data shown in Table below are mean values of results obtained by repeating the analysis three times.

[2] = tested on: MCF7; experiment: as above; assay type: cell-based; settings: Homo sapiens, 96 h, 4 days
Protocol: as §1

[3] = tested on: HeLa CCL2 cell line; experiment: Effect test on cell cycle progression (propidium iodine, FACS); assay type: cell-based, human
[4] = tested on: HeLa CCL2 cells; experiment: Wound healing assay; assay type: cell-based, human; settings: up to 100 nM, FIGS. 6A and 6B
Protocol: HeLa CCL2 cells were cultured in 6 wells at 100%, wounded with a yellow tip, and treated with 50 nM and 100 nM of the compound of Example 4. In order to observe the effect of the drug, the degree of cell migration was compared and observed by recording the state of the cells before treatment as images, and comparing the cell state before drug treatment with the state of the cells at 24, 36, and 48 hours post the drug treatment. The concentration of the compound of Example 4 treated with the cells was determined by performing MTT assay.

[5] = tested on: HeLa CCL2 cells; experiment: In vitro invasion assay (trans well); assay type: cell-based, human; settings: 10 nM, 50 nM, 100 nM, 250 nM, 16 hours, FIGS. 7A and 7B
Protocol: In addition, in order to confirm the efficacy of inhibiting cell migration again, an invasion assay was performed. A trans well chamber for a 24-well plate was prepared, and HeLa CCL2 cells at a density of 5×10^4 were put into the upper chamber, treated with 10 nM, 50 nM, 100 nM, and 250 nM of the compound of Example 4, and cultured. Then, after 16 hours, the migrated cells were identified and the number thereof was measured through cell staining.

[6] = Mouse toxicity test (repeated intraperitoneal injection); assay type: in vivo, ICR mice; settings: for Survival rate (%): n = 3, i.p., 10 injections
Protocol: All animal experiments and procedures were performed in accordance with ethical standards under the approval of the Institutional Animal Care and Use Committee (IACUC) of the Korea Research Institute of Bioscience and Biotechnology (KRIBB). ICR mice were supplied by Daehan Biolink Co., Ltd (Korea). All mice were housed in sterile animal isolation facilities. All in vivo experiments were performed using 6-8 week old mice.
Acute toxicity test of the compound of Example 4 was performed at the Laboratory Animal Resource Center of the Korea Research Institute of Bioscience and Biotechnology. ICR mice (6-8 weeks old) were acclimatized for up to 10 days before the experiment, and then 3 mice were injected with the drugs. The Example compound was mixed with a solvent and injected intraperitoneally, and after drug treatment, clinical symptoms were observed twice within 24 hours, and additional drug treatment was performed up to 10 times as scheduled. The mice were weighed 5 times as scheduled.
(§2) 100 mg/kg of the compound of Example 4 was dissolved in a solvent (N′,N′-dimethylacetamide/Kolliphor/2-hydroxypropyl-β-cyclodextrin (10% concentration of distilled water solution)=40:10:50). When the concentration became thicker than that, the reaction solution immediately precipitated. The solution in which the compound of Example 4 was dissolved from 12.5 mg/kg to 100 mg/kg was injected into the peritoneal cavity of mice 10 times […] in a volume of 100 μL (see FIG. 8A). All animals survived to the final day, and no particular problems were seen by visual observation (see Table 13 and FIG. 8A).

[7] = design: species or system ICR mice; settings: mouse, in vivo
Protocol: The experimental apparatus was constructed similarly to that used in the paper described by Reyes-Mendez et al. (2018), and was composed of a black acrylic fence (floor area of […] and wall height of 40 cm). The floor surface was divided into 25 squares each having a size of 10×10 cm. For this experiment, mice were placed on the center of the floor and spontaneous activities thereof were recorded for 7 minutes from the top. After the experiment, the experimental apparatus was thoroughly washed with 30% ethanol. Three observers, unaware whether the drug was treated or not, analyzed the first 5 minutes of recorded video to count the number of squares the mouse passed, and add up the time during which the mouse stayed without moving, and the number of times the mouse was groomed or shaken, and the like. Based on the contents analyzed above, the time during which the mouse stayed in the central zone, speed, and total moving distance were calculated. A case where the two-tailed probability value was less than 0.05 (p<0.05) was considered statistically significant.
No statistically significant experimental groups were found as results of open-field experiments in mice.

[8] = Solubility of the compound in the toxicity-test solvent; assay type: physicochemical; settings: N′,N′-dimethylacetamide/Kolliphor/2-hydroxypropyl-β-cyclodextrin (10% in distilled water)=40:10:50; thicker solutions precipitated
Protocol: as §2

SMILES: CCOCCn1c(Cl)c(/C=N/NC(=O)c2cc3cc(C)ccc3o2)c2ccccc21 [Example 4, (E)-N′-[(2-chloro-1-(2-ethoxyethyl)-1H-indol-3-yl]methylene}-5-methylbenzofuran-2-carbohydrazide]
- IC50 [1]: 350 nM
- IC50 [2]: 822 nM
- number of cells in G2/M phase as a percentage ([3]; 0.2 μM, FACS): 82.36%
- cells stopped in the mitotic phase ([3]; 16 hours post treatment): ≥ 80%
- Effect (μM): concentration at which cells were collected in the mitotic phase ([3]; FACS): 0.2 µM
- IC50 ([3]; Homo sapiens, as stated in text on Table 5): 200 nM
- effect on cell growth [4]: did not have a significant effect on cell growth
- cancer metastasis inhibitory effect (migrated cells) [5]: excellent cancer metastasis inhibitory effect
- Survival rate (%) ([6]; 12.5 mg/kg): 100%
- Survival rate (%) ([6]; 25 mg/kg): 100%
- Survival rate (%) ([6]; 50 mg/kg): 100%
- Survival rate (%) ([6]; 100 mg/kg): 100%
- toxicity on dissection (size and morphology of each organ) ([6]; intraperitoneally 10 times at 100 mg/kg): did not induce serious toxicity
- effect on behavior of mice in open field (time in center zone, speed, total moving distance) [7]: did not affect the behavior of mice in all groups
- highest concentration dissolved without precipitation [8]: 100 mg/kg
